From ChEMBL document CHEMBL1201862, “PubChem BioAssay data set” (2004)
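How tested: cells in 96-well plates exposed to compound for 48 hours at five concentrations. GI50 = concentration required for 50% inhibition of growth.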 Activity calls are given as the source filed them. Cut-off read from the data, not from the text of the source: active = GI50 up to about 1.1 µM and inactive = higher.

Columns and labels:
Test in all cases: NCI-60 cell line screen, 48 h
786-0 = system: 786-0
A498 = system: A498
A549 = system: A549
ACHN = system: ACHN
EKVX = system: EKVX
HOP-92 = system: HOP-92
KM12 = system: KM12
MDA-MB-435 = system: MDA-MB-435
MOLT-4 = system: MOLT-4
NCI-H23 = system: NCI-H23
OVCAR-3 = system: OVCAR-3
SF-295 = system: SF-295
SK-MEL-2 = system: SK-MEL-2
SK-OV-3 = system: SK-OV-3
SW-620 = system: SW-620
U-251 = system: U-251
UACC-257 = system: UACC-257
UO-31 = system: UO-31
NCI-H460 = system: NCI-H460
Hs-578T = system: Hs-578T

SMILES | GI50 (786-0) | GI50 (A498) | GI50 (A549) | GI50 (ACHN) | GI50 (EKVX) | GI50 (HOP-92) | GI50 (KM12) | GI50 (MDA-MB-435) | GI50 (MOLT-4) | GI50 (NCI-H23) | GI50 (OVCAR-3) | GI50 (SF-295) | GI50 (SK-MEL-2) | GI50 (SK-OV-3) | GI50 (SW-620) | GI50 (U-251) | GI50 (UACC-257) | GI50 (UO-31) | GI50 (NCI-H460) | GI50 (Hs-578T)
O=C(NNCC(O)COc1ccccc1)c1ccccc1 (stereo not drawn) | > 100 µM (inactive) | > 100 µM (inactive) | > 100 µM (inactive) | > 100 µM (inactive) | > 100 µM (inactive) | > 100 µM (inactive) | > 100 µM (inactive) | > 100 µM (inactive) | > 100 µM (inactive) | > 100 µM (inactive) | > 100 µM (inactive) | > 100 µM (inactive) | > 100 µM (inactive) | > 100 µM (inactive) | > 100 µM (inactive) | > 100 µM (inactive) | > 100 µM (inactive) | > 100 µM (inactive) | – | –
COc1ccc2c(c1)C(=O)c1ccc(OC)cc1C2=S | > 100 µM (inactive) | > 100 µM (inactive) | > 100 µM (inactive) | > 100 µM (inactive) | > 100 µM (inactive) | > 100 µM (inactive) | > 100 µM (inactive) | – | > 100 µM (inactive) | > 100 µM (inactive) | > 100 µM (inactive) | > 100 µM (inactive) | > 100 µM (inactive) | > 100 µM (inactive) | > 100 µM (inactive) | 24.4 µM (inactive) | > 100 µM (inactive) | > 100 µM (inactive) | – | –
CCCNc1ncnc2c1ncn2C | 48.8 µM (inactive) | 22.9 µM (inactive) | > 100 µM (inactive) | 51.6 µM (inactive) | > 100 µM (inactive) | 37.6 µM (inactive) | > 100 µM (inactive) | > 100 µM (inactive) | 45.3 µM (inactive) | 35.6 µM (inactive) | 58.5 µM (inactive) | 40.6 µM (inactive) | > 100 µM (inactive) | > 100 µM (inactive) | 94.4 µM (inactive) | > 100 µM (inactive) | > 100 µM (inactive) | 85.1 µM (inactive) | – | –
Cc1ccc(SC2C(C)(C)N(C(C)C)P2(=O)N(C(C)C)C(C)C)cc1 (stereo not drawn) | 82.4 µM (inactive) | > 100 µM (inactive) | > 45 µM (inactive) | 15.8 µM (inactive) | 26.4 µM (inactive) | 5.58 µM (inactive) | > 100 µM (inactive) | – | 30.2 µM (inactive) | 26.7 µM (inactive) | 55.5 µM (inactive) | 70.8 µM (inactive) | 67 µM (inactive) | > 100 µM (inactive) | > 25.5 µM (inactive) | > 59 µM (inactive) | 16.9 µM (inactive) | 46.1 µM (inactive) | 27.5 µM (inactive) | –
CN(c1ccccc1)C1C(=O)N(c2ccccc2)C1/C=C/c1ccccc1 (stereo not drawn) | > 100 µM (inactive) | 5.58 µM (inactive) | > 100 µM (inactive) | > 100 µM (inactive) | > 100 µM (inactive) | > 100 µM (inactive) | > 100 µM (inactive) | – | > 100 µM (inactive) | > 100 µM (inactive) | > 100 µM (inactive) | > 100 µM (inactive) | > 100 µM (inactive) | > 100 µM (inactive) | > 100 µM (inactive) | > 100 µM (inactive) | > 100 µM (inactive) | > 100 µM (inactive) | > 100 µM (inactive) | –
Nc1ncnc2c1ncn2C1CCC(CP(=O)(O)O)C1 (stereo not drawn) | > 100 µM (inactive) | – | > 100 µM (inactive) | > 100 µM (inactive) | > 100 µM (inactive) | – | > 100 µM (inactive) | > 100 µM (inactive) | – | > 100 µM (inactive) | > 100 µM (inactive) | > 100 µM (inactive) | > 100 µM (inactive) | > 100 µM (inactive) | > 100 µM (inactive) | > 100 µM (inactive) | > 100 µM (inactive) | > 100 µM (inactive) | > 100 µM (inactive) | > 100 µM (inactive)
CN(c1c(Cl)cccc1Cl)S(=O)(=O)c1ccccc1[N+](=O)[O-] | > 100 µM (inactive) | – | > 100 µM (inactive) | > 100 µM (inactive) | > 100 µM (inactive) | – | > 100 µM (inactive) | > 100 µM (inactive) | > 100 µM (inactive) | > 100 µM (inactive) | > 100 µM (inactive) | > 100 µM (inactive) | > 100 µM (inactive) | > 100 µM (inactive) | > 100 µM (inactive) | > 100 µM (inactive) | > 100 µM (inactive) | > 100 µM (inactive) | > 100 µM (inactive) | > 100 µM (inactive)
N#Cc1ccc(Sc2ccccc2)cc1C#N | 28.1 µM (inactive) | > 100 µM (inactive) | > 100 µM (inactive) | > 100 µM (inactive) | > 100 µM (inactive) | 30.1 µM (inactive) | > 100 µM (inactive) | – | > 100 µM (inactive) | 50.5 µM (inactive) | > 100 µM (inactive) | 39.9 µM (inactive) | > 100 µM (inactive) | 54 µM (inactive) | – | 36.1 µM (inactive) | > 100 µM (inactive) | > 100 µM (inactive) | 22.2 µM (inactive) | –
C/C(=N/N)c1sc(-c2nc(C)c(/C(C)=N\N)s2)nc1C | > 55.6 µM (inactive) | > 100 µM (inactive) | > 100 µM (inactive) | > 100 µM (inactive) | > 100 µM (inactive) | > 100 µM (inactive) | > 100 µM (inactive) | – | 24.5 µM (inactive) | > 100 µM (inactive) | > 100 µM (inactive) | > 100 µM (inactive) | > 100 µM (inactive) | > 100 µM (inactive) | > 100 µM (inactive) | > 100 µM (inactive) | > 100 µM (inactive) | > 100 µM (inactive) | 59.3 µM (inactive) | –
O=C1C=C(Nc2ccccc2C(=O)CC(=O)C(=O)Nc2ccc(Cl)cc2)c2ccccc2C1=O | 16.3 µM (inactive) | > 100 µM (inactive) | 14.4 µM (inactive) | 18.2 µM (inactive) | 32.4 µM (inactive) | 21.9 µM (inactive) | 14.6 µM (inactive) | – | 5.05 µM (inactive) | 9.91 µM (inactive) | 2.39 µM (inactive) | – | 17.2 µM (inactive) | 26.2 µM (inactive) | 7.11 µM (inactive) | 20.1 µM (inactive) | 8.83 µM (inactive) | 14.7 µM (inactive) | 16.3 µM (inactive) | –
CCC(C)C(NC(=O)c1c2ccccc2nc2ccccc12)C(=O)O (stereo not drawn) | > 100 µM (inactive) | > 100 µM (inactive) | 77.3 µM (inactive) | > 100 µM (inactive) | > 100 µM (inactive) | > 100 µM (inactive) | > 100 µM (inactive) | 79.1 µM (inactive) | > 100 µM (inactive) | 83 µM (inactive) | > 100 µM (inactive) | > 100 µM (inactive) | > 100 µM (inactive) | > 100 µM (inactive) | > 100 µM (inactive) | > 100 µM (inactive) | > 100 µM (inactive) | 25.1 µM (inactive) | > 100 µM (inactive) | –
Cc1cc(C)c(/C=N/NS(=O)(=O)c2ccccc2)c(C)c1 | > 100 µM (inactive) | 56.1 µM (inactive) | > 100 µM (inactive) | > 100 µM (inactive) | 62.7 µM (inactive) | 36.3 µM (inactive) | > 100 µM (inactive) | – | 44.7 µM (inactive) | 54.3 µM (inactive) | 47.6 µM (inactive) | 38.5 µM (inactive) | > 100 µM (inactive) | > 100 µM (inactive) | > 100 µM (inactive) | > 100 µM (inactive) | 68.7 µM (inactive) | 72.1 µM (inactive) | 59.4 µM (inactive) | –
O=C1OC(CC(=O)c2ccc(Cl)cc2Cl)C(Cl)=C1Cl (stereo not drawn) | 21.9 µM (inactive) | > 100 µM (inactive) | > 100 µM (inactive) | > 41.1 µM (inactive) | > 54.7 µM (inactive) | 18.9 µM (inactive) | > 100 µM (inactive) | – | 24.8 µM (inactive) | 28.9 µM (inactive) | 33.8 µM (inactive) | > 100 µM (inactive) | 19.8 µM (inactive) | > 36.1 µM (inactive) | 19.4 µM (inactive) | 27.6 µM (inactive) | > 100 µM (inactive) | > 42.6 µM (inactive) | > 57.3 µM (inactive) | –
COc1ccc2nc3cc(Cl)ccc3c(Sc3ccccc3[N+](=O)[O-])c2c1 | 75.3 µM (inactive) | > 100 µM (inactive) | > 100 µM (inactive) | > 100 µM (inactive) | > 100 µM (inactive) | 90.2 µM (inactive) | > 100 µM (inactive) | – | > 100 µM (inactive) | > 100 µM (inactive) | > 100 µM (inactive) | > 100 µM (inactive) | > 100 µM (inactive) | 58.1 µM (inactive) | > 100 µM (inactive) | > 100 µM (inactive) | > 100 µM (inactive) | > 100 µM (inactive) | > 100 µM (inactive) | –
COc1cc2c[n+](C)c3c4cc(OC)c(OC)cc4c(OCc4ccccc4)cc3c2cc1OC | 0.634 µM (active) | 27.3 µM (inactive) | 4.72 µM (inactive) | > 69.3 µM (inactive) | > 100 µM (inactive) | 0.966 µM (active) | 2.1 µM (inactive) | 1.09 µM (active) | 0.592 µM (active) | 1.32 µM (inactive) | 0.877 µM (active) | 4.89 µM (inactive) | 1.63 µM (inactive) | 11.7 µM (inactive) | 0.805 µM (active) | 0.0273 µM (active) | 0.706 µM (active) | > 100 µM (inactive) | 6.62 µM (inactive) | –
